Experimental data: PubChem BioAssay AID1411 (The Scripps Research Institute Molecular Screening Center, 2008)
The source made the active and inactive calls. How the calls were made is not given here.

Each compound was assayed against Signal transducer and activator of transcription 1-alpha/beta (Homo sapiens) (UniProt P42224) (assay: STAT1 reporter inhibitors, potency curves, dose response, counter-screen for STAT3 inhibitor project, cell-based, NIH 3T3, luciferase reporter (AID 1411)). Conditions: NIH 3T3 fibroblasts, counterscreen.
Sequence of Signal transducer and activator of transcription 1-alpha/beta (Homo sapiens) (P42224 whole entry, looked up): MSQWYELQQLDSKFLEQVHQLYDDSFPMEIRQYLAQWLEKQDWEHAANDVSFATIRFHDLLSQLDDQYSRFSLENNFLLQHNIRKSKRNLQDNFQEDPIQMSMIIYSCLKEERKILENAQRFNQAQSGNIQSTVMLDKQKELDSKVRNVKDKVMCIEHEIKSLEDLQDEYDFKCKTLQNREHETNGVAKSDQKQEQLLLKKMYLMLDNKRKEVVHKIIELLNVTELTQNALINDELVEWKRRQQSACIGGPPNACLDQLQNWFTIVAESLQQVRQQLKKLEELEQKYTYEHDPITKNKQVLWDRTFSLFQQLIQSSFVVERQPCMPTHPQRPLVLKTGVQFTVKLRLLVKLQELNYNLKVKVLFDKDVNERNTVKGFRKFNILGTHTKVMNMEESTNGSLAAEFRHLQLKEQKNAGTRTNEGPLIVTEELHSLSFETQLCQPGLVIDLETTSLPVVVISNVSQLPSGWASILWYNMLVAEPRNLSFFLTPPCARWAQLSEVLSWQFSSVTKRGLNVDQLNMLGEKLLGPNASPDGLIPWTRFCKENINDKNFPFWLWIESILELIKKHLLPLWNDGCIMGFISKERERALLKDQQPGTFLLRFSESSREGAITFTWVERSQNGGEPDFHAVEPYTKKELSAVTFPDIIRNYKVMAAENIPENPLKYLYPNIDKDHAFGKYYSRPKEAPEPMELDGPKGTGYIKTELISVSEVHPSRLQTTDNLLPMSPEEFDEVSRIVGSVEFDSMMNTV

SMILES | IC50
O=C(Nc1cccc(O)c1)c1noc2c1CCc1ccccc1-2 | inactive
CC(=O)Nc1ccc(-c2csc(Nc3ccc(Cl)cn3)n2)cc1 | > 55.7 µM (inactive)
COC(=O)c1nn(-c2ccc3c(c2)CCN3C(C)=O)cc1O | 9.87 µM
Cc1nc2ccccc2cc1OCc1ccc(F)cc1 | > 55.7 µM (inactive)
CC(=O)c1ccc(N=Nc2ccc(C)cc2)cc1 | inactive
Cc1ccsc1/C=C1\CCc2ccccc2C1=O | 7.89 µM
CCCNC(=O)c1ccc(-c2nc3ccccc3s2)s1 | inactive
O=C(COC(=O)c1n[nH]c2ccccc12)Nc1ccc(S(=O)(=O)N2CCCC2)cc1 | > 55.7 µM (inactive)
O=c1c2c(nc3n1CCCCC3)sc1c(O)cccc12 | > 55.7 µM (inactive)
C[C@H]1O[C@@H](O[C@H]2[C@@H](O)C[C@H](O[C@H]3[C@@H](O)C[C@H](O[C@H]4CC[C@@]5(C)[C@H](CC[C@@H]6[C@@H]5CC[C@]5(C)[C@@H](C7=CC(=O)OC7)CC[C@]65O)C4)O[C@@H]3C)O[C@@H]2C)C[C@H](O)[C@@H]1O | > 55.7 µM (inactive)
CCOC(=O)C1=C(Cc2ccc(C)cc2)C(=O)c2ccccc2C1=O | > 55.7 µM (inactive)
Nc1c(C(=O)NC2CCCCC2)nsc1C(=O)OCC(=O)NC1CCCCC1 | > 55.7 µM (inactive)
CCOC(=O)c1ccc(NC(=O)c2ccc(CN3CCOCC3)cc2)cc1 | > 55.7 µM (inactive)
COc1ccc(-c2nn(C)c(=O)c3ccccc23)cc1NC(=O)COc1ccc(C)cc1 | inactive
O=C(Oc1cccc(Nc2ncnc3ccccc23)c1)c1ccccc1Cl | > 55.7 µM (inactive)
COc1cc(OC)cc(C(=O)Nc2ccc(-c3nc4ccccc4o3)cc2)c1 | > 55.7 µM (inactive)
CC(C)Cn1c(N)c(C(=O)CSc2ccccc2)c(=O)n(C)c1=O | > 55.7 µM (inactive)
Cc1ccc2c(C)nc(Nc3nc(CSc4nc5ccccc5[nH]4)cc(=O)[nH]3)nc2c1 | > 55.7 µM (inactive)
O=C(Nc1cccc(Cl)c1)Nc1ccnc(-c2cccnc2)n1 | > 55.7 µM (inactive)
CCCCOc1ccc(C(=O)Nc2ccncc2)cc1 | > 55.7 µM (inactive)
O=C(Nc1ccn(Cc2ccccc2F)n1)c1ccc(COc2ccc(Br)cc2)cc1 | > 55.7 µM (inactive)
CCOC(=O)c1sc2nc(CC(=O)OC)nc(NCc3ccc(Cl)cc3)c2c1C | > 55.7 µM (inactive)

SMILES | IC50
O=C(C1CCN(c2nc3ccc(Br)cc3s2)CC1)N1CCC2(CC1)OCCO2 | > 55.7 µM (inactive)
Cc1nc(CNS(=O)(=O)c2ccc(Oc3ccccc3)cc2)cs1 | > 55.7 µM (inactive)
CN1/C(=C\C(=O)C[n+]2ccc(C(=O)c3ccccc3)cc2)C(C)(C)c2ccccc21 | > 55.7 µM (inactive)
COc1ccc(CC(=O)Nc2cccc(-c3nnc(-c4cccc(C)c4)o3)c2)cc1OC | inactive
COc1ccc(C(=O)Nc2ccc3oc(Cc4ccc(Cl)cc4)nc3c2)cc1OC | > 55.7 µM (inactive)
CCCOc1ccc(/C=N/NC(=S)Nc2ccccc2[N+](=O)[O-])c(O)c1 | > 55.7 µM (inactive)
Clc1ccc(CSc2nnc(Cn3cnc4ccccc43)o2)cc1 | > 55.7 µM (inactive)
COC(=O)c1cccc(NC(=O)CSc2nc3cccnc3n2C)c1 | > 55.7 µM (inactive)
COc1cccc(-c2cc(C(=O)Nc3cccc(O)c3)no2)c1 | inactive
CCC(C)(C)c1ccc(OCCCC[n+]2cccc(C)c2)c(C(C)(C)CC)c1 | > 55.7 µM (inactive)
Cc1cc(NC(=O)c2cc(-c3cccs3)on2)nn1Cc1ccc(Cl)cc1 | > 55.7 µM (inactive)
CCOc1cc(C(=S)N2CCOCC2)ccc1OS(=O)(=O)c1ccc(NC(C)=O)cc1 | > 55.7 µM (inactive)
NC(=O)C1CCN(c2ccc(S(=O)(=O)N3CCC(Cc4ccccc4)CC3)cn2)CC1 | > 55.7 µM (inactive)
C[C@@H]1O[C@@H](O[C@H]2C[C@@H](O)[C@]3(CO)[C@H]4[C@H](O)C[C@]5(C)[C@@H](C6=CC(=O)OC6)CC[C@]5(O)[C@@H]4CC[C@]3(O)C2)[C@H](O)[C@H](O)[C@H]1O | > 55.7 µM (inactive)
CSc1ccc(NC(=O)N2CCN(c3nc4ccccc4s3)CC2)cc1 | > 55.7 µM (inactive)
O=C(Nc1cccc(S(=O)(=O)Nc2ccccc2Cl)c1)c1ccc(Cl)nc1 | > 55.7 µM (inactive)
CN1/C(=C\C(=O)C[n+]2ccc3ccccc3c2)C(C)(C)c2ccccc21 | > 55.7 µM (inactive)
Cc1ccc(Cl)cc1N1CCN(C(=O)COc2ccc(S(=O)(=O)NC(C)C)cc2)CC1 | > 55.7 µM (inactive)
CC1CCCCC1NS(=O)(=O)c1ccc(S(=O)(=O)NCc2ccncc2)cc1 (stereo unspecified) | > 55.7 µM (inactive)
Clc1ccc2ncc(-c3nnnn3-c3ccccc3)c(-c3ccccc3)c2c1 | > 55.7 µM (inactive)
O=C(Nc1ccncc1)c1ccc2c(c1)C(=O)N(C1CCCCC1)C2=O | > 55.7 µM (inactive)
COc1ccc(/C=N/NC(=S)Nc2ccccc2[N+](=O)[O-])cc1O | > 55.7 µM (inactive)

SMILES | IC50
CC1CCC2C(=O)N(c3ccccc3OC(=O)c3ccccc3)C(=O)C2C1 (stereo unspecified) | > 55.7 µM (inactive)
O=C(Nc1ccc(Cc2ccncc2)cc1)c1ccc(S(=O)(=O)N2CCOCC2)cc1 | > 55.7 µM (inactive)
Clc1ccc(OCc2cc(-c3ccccc3)no2)c(Cl)c1 | inactive
C[C@H]1O[C@@H](O[C@H]2[C@@H](O)C[C@H](O[C@H]3[C@@H](O)C[C@H](O[C@H]4CC[C@@]5(C)[C@H](CC[C@@H]6[C@@H]5C[C@@H](O)[C@]5(C)[C@@H](C7=CC(=O)OC7)CC[C@]65O)C4)O[C@@H]3C)O[C@@H]2C)C[C@H](O)[C@@H]1O | > 55.7 µM (inactive)
O=C1CCCN1c1ccc(S(=O)(=O)N2CCC(c3ccccc3)CC2)cc1 | > 55.7 µM (inactive)
Cc1nn2cc(-c3ncc(C(F)(F)F)cc3Cl)cnc2c1Br | inactive
CN(C)S(=O)(=O)Oc1cccc(C(=O)Nc2ccc(Cl)cc2)c1 | > 55.7 µM (inactive)
COc1cc(OC)cc(C(=O)Nc2nnc(NC(=S)Nc3ccccc3)s2)c1 | > 55.7 µM (inactive)
O=C1C2C3c4ccccc4C(c4ccccc43)C2c2nc3ccccc3n21 (stereo unspecified) | > 55.7 µM (inactive)
Oc1ccc(-c2n[nH]c(=S)n2-c2ccc3c(c2)OCCO3)c(O)c1 | > 55.7 µM (inactive)
Nc1cc(-c2ccc(Br)cc2)nn1Cc1ccccc1 | > 55.7 µM (inactive)
CCc1c(C)c2ccc(OCC(=O)OC(C)C)c(C)c2oc1=O | > 55.7 µM (inactive)
Cc1ccccc1OCCCCn1cnc2ccccc21 | > 55.7 µM (inactive)
CCC(C)NC(=S)Nc1ccc(C(=O)OC)cc1 (stereo unspecified) | > 55.7 µM (inactive)
Nc1cc(-c2ccccc2)nn1Cc1ccc(Cl)cc1 | > 55.7 µM (inactive)
Cc1nc2ccccc2cc1OCc1ccccc1 | > 55.7 µM (inactive)
CNC(=O)Oc1cccc(-c2cn3cc(Cl)ccc3n2)c1 | inactive
CCOC(=O)Cc1csc(SCC(=O)c2c(N)n(CC(C)C)c(=O)n(C)c2=O)n1 | > 55.7 µM (inactive)
COc1ccc2nc3c(cc2c1)c(NC(=O)c1cccs1)nn3CC(C)C | > 55.7 µM (inactive)
COc1ccccc1OCC(=O)c1[nH]c(C)c(C(C)=O)c1C | > 55.7 µM (inactive)
c1ccc(C(Cc2nc(-c3ccncc3)no2)c2ccccc2)cc1 | > 55.7 µM (inactive)
Cc1cccc(C)c1NC(=O)N1CCN(c2nc3ccccc3s2)CC1 | > 55.7 µM (inactive)
